Reference: patent US20250108036A1, “COMPOSITIONS FOR REMOVING SENESCENT CELLS AND USES THEREOF” (LIFECEUTIX CO., LTD., priority 2021, published 2025)

Experiments:
Format in all cases: cell-based, human
senescent foreskin cells = assay: survival of senescent foreskin cells treated with medium supernatant (secreted fluid) of compound-killed cells (Example 13, Tables 68, 69); conditions: culture medium supernatant from dying senescent cells treated with compound at 30 μM, 90 μM or 270 μM; senescent foreskin cells
A549 = assay: CellTiter-Glo cell viability of senescent A549 cancer cells (Example 12, Table 67); conditions: doxorubicin-induced senescent A549 cancer cells, CellTiter-Glo
HMGN1 [1] = assay: HMGN1 ELISA in culture medium of foreskin cells (Examples 10, 11; Tables 62, 63, 64); conditions: doxorubicin-treated foreskin cells, DMSO = 100
[2] = test system: foreskin cells in which senescence was induced by doxorubicin; assay: CellTiter-Glo cell viability of doxorubicin-induced senescent foreskin cells (Examples 1-2, 10, 11, 13; Tables 4, 63, 65); conditions: doxorubicin-induced senescent foreskin cells, CellTiter-Glo, 0 μM = 100
HMGN1 [3] = assay: HMGN1 ELISA in culture medium of A549 cancer cells (Example 12, Table 66); conditions: doxorubicin-induced senescent A549 cells, ELISA, DMSO = 100

| Molecule | Survival (senescent foreskin cells) | Survival (%) (A549; 1.1 μM test compound) | Survival (%) (A549; 10 μM test compound) | Survival (%) (A549; 30 μM test compound) | HMGN1 (HMGN1 [1]; 30 μM test compound) | Survival (%) ([2]; 1.1 μM test compound) | Survival (%) ([2]; 10 μM test compound) | Survival (%) ([2]; 30 μM test compound) | Survival (%) ([2]; […] test compound) | HMGN1 (amount of HMGN1 secreted in the cell culture) (HMGN1 [3]; test compound 30 μM) | Survival (%) (A549; 90 μM test compound) | HMGN1 (amount of HMGN1 secreted in the cell culture) (HMGN1 [3]; test compound 90 μM) | HMGN1 (HMGN1 [1]; 90 μM test compound) | Survival (%) ([2]; 90 μM test compound) | HMGN1 (HMGN1 [1]; 20 ng/ml test compound) | HMGN1 (amount of HMGN1 secreted in the cell culture) (HMGN1 [3]; test compound 20 ng/ml) |
| --- | --- | --- | --- | --- | --- | --- | --- | --- | --- | --- | --- | --- | --- | --- | --- | --- |
| C[Si](C)(Cc1ccc(F)cc1)CN1CCCCC1.Cl [LX-1407, Silperisone, reference compound] | 69.9 | 101.5 | 71.7 | 39.4 | 232 | 99.4 | 72.8 | 19.9 | 95.9 | 175 | – | – | – | – | – | – |
| O=C(O)CC([S-])C(=O)O.[Au+] (stereo not drawn) [LX-202, Aurothiomalate, reference compound] | 45.7 | 96.7 | 37.3 | – | 287 | 97.4 | – | – | 7.6 | 327 | – | – | – | – | – | – |
| Cc1nc(-c2nc(-c3ccc(OC(F)(F)F)cc3)no2)nn1Cc1cccc(N2CCC(S(C)(=O)=O)CC2)c1 [LX-3200] | 54.9 | 94.9 | 61.6 | 1.6 | 234 | 92.2 | 14.3 | – | 78.6 | 305 | – | – | – | – | – | – |
| Cc1nnc(NC(=O)c2nc(S(=O)(=O)Cc3ccc(F)cc3)ncc2Cl)s1 [LX-916] | 48.7 | 103.9 | 71.7 | 24.4 | 317 | 103.5 | 54.5 | 3.5 | 94.2 | – | 1.7 | 198 | – | – | – | – |
| CCOC(=O)[C@@H](N)CCC(=O)N[C@@H](CSCc1ccccc1)C(=O)N[C@@H](C(=O)OCC)c1ccccc1 [LX-2602, Ezatiostat, reference compound] | 69.5 | 102.7 | 96 | 32.5 | 208 | 97.3 | 76.9 | 47.6 | 92.5 | 283 | – | – | – | – | – | – |
| O=C(NCCCCCCCCCC[P+](c1ccccc1)(c1ccccc1)c1ccccc1)c1nn(Cc2ccc(Cl)cc2Cl)c2ccccc12.[Br-] [LX-1207] | 62.7 | 59.8 | – | – | 285 | 36.8 | – | – | 10 | 318 | – | – | – | – | – | – |
| CN(Cc1cnc2nc(N)nc(N)c2n1)c1ccc(C(=O)N[C@@H](CCC(=O)O)C(=O)O)cc1 [LX-2901, Methotrexate, reference compound] | 97.5 | 89 | 90.4 | 92.3 | – | 103.3 | 104.8 | 93.6 | 97.8 | – | 37.2 | 189 | 167 | 49.9 | – | – |
| Tocofersolan [LX-3001, reference compound] | 58.7 | 101.6 | 22.6 | – | 301 | 74.8 | – | – | 1.1 | 261 | – | – | – | – | – | – |
| C[N+](C)(C)CCO.C[N+](C)(C)CCO.[SH-].[SH-].[S]=[Mo]=[S] [LX-2601] | 67.3 | 98.6 | 59.7 | 50.7 | 263 | 95.2 | 58.6 | 21.8 | 81.8 | 193 | – | – | – | – | – | – |
| C[C@@H]1C(=O)C(C#N)=C[C@]2(c3ccccc3)c3c(c(-c4cncnc4)nn3C)CC[C@@H]12 [LX-2408] | 55.2 | 96.5 | 15.9 | – | 297 | 85.9 | – | – | 37.5 | 329 | – | – | – | – | – | – |
| CC(N)(Cc1ccc(O)cc1)C(=O)O (racemic) [LX-3206, Racemetyrosine, reference compound] | 51.9 | 92.6 | 51.9 | 5.7 | 222 | 95.8 | 64.7 | 21.3 | 96 | 215 | – | – | – | – | – | – |
| CC1=C(C)C(=O)C(CCCCCCCCCC[P+](c2ccccc2)(c2ccccc2)c2ccccc2)=CC1=O.[Br-] [LX-1205] | 53.4 | 34.2 | – | – | 279 | 0.1 | – | – | – | 279 | – | – | – | – | – | – |
| CN1CC[C@@H](Nc2cccc3c2cc(-c2noc(CNC(=O)c4cnn(C(C)(C)C)c4)n2)n3CC(F)(F)F)[C@@H](F)C1 [LX-915] | 53.1 | 94.7 | 86.9 | 84.9 | 297 | 94.7 | 72.8 | 8.5 | 83.2 | – | 6.8 | 229 | – | – | – | – |
| [3,4,5-triacetyloxy-6-[4-[2-[(dimethylamino)methyl]prop-2-enoyl]phenoxy]oxan-2-yl]methyl acetate [LX-918] | 63.8 | 103.8 | 86.7 | 82.9 | 247 | 98.9 | 94.5 | 32.7 | 95.4 | – | 31.8 | 200 | – | – | – | – |
| LX-3401: Interferon gamma, CAS 98059-61-1 (IFNy-1b), 82115-62-6 | 66.8 | 110.8 | 58.3 | 5.8 | – | 101.8 | 75.8 | 35.4 | 98.1 | – | – | – | – | – | 198 | 284 |
| C[Se](=O)O [LX-3105, Methylseleninic acid] | 69.1 | 84 | 69.9 | 59.3 | 195 | 82.1 | 41.1 | 37.7 | 59.5 | – | 39.6 | 202 | – | 4.1 | – | – |
| CS(=O)(=O)c1ncc(Cl)c(C(=O)O)n1 [LX-917] | 42.5 | 101.5 | 65.7 | 17.1 | 269 | 101.8 | 45.8 | 4.7 | 93.2 | – | 3.5 | 223 | – | – | – | – |
